Assay results taken from BigSolDB 2.1.

O=C(O)c1cccc(Cl)c1C(=O)c1ccccc1
solubility (mole fraction)
Settings	273.15 K	278.15 K	283.15 K	288.15 K	293.15 K	298.15 K	303.15 K	308.15 K	313.15 K	318.15 K
in 1,4-dioxane	0.0192	0.021	0.0231	0.0254	0.0281	0.0309	0.034	0.0373	0.0413	0.0462
in acetone	0.00169	0.00183	0.00204	0.00225	0.00258	0.00281	0.00308	0.00349	0.00385	0.00432
in ethyl acetate	0.00545	0.00599	0.00692	0.00811	0.00959	0.011	0.0128	0.0146	0.0172	0.0197

O=C1c2ccccc2C(=O)c2c(Cl)cccc21
solubility (mole fraction)
Settings	273.15 K	278.15 K	283.15 K	288.15 K	293.15 K	298.15 K	303.15 K	308.15 K	313.15 K
in 1,4-dioxane	0.00323	0.00373	0.00412	0.00469	0.00547	0.00607	0.00691	0.00775	0.00896
in acetone	0.00272	0.00308	0.00336	0.00388	0.00448	0.00531	0.00611	0.00692	0.00767
in ethyl acetate	0.00335	0.00387	0.00459	0.00531	0.00605	0.0069	0.00795	0.00913	0.0106
in toluene	0.00918	0.01	0.0112	0.0122	0.0132	0.0146	0.016	0.0175	0.019
